Holding throughout (assay type): physicochemical
Data set [1] in a line: Iodide level after steam heat sterilisation, conventional heating regime. The conditions noted are these: 134° C. for 45 minutes, no reduced pH. The method, then:
During the development of new iodinated X-ray contrast agents, several heating regimes have been tested to find the parameters to be used for the secondary productions. Among these are end heat steam sterilization at 134° C. or 121° C. for 45 minutes or more, pre-heating in the mixing tank above the dissolution temperature (e.g. 110-111° C./330 mg I/ml) using different regimes followed by end heat steam sterilization etc. Although some of these heating regimes might be capable of providing a physically stable solution, they may cause high levels of free iodide due to degeneration of the iodinated X-ray contrast agent (Scheme 1). […] This is above the acceptable level.

A short description of data set [2]: Inorganic iodide in X-ray composition prepared by the process of the invention (400 litre batch). The settings on record: 320 mg I/ml. The method, then: 261 kg of Compound I was dissolved in 250 litres of water for injection (WFI) and added 44 g Na2Ca-EDTA.2H2O in the mixing tank (A). HCl 5M was used to set the solution to pH 3. Under these conditions, to the composition underwent heating for 40 minutes at 122° C. […] This solution was cooled to approximately 50° C. and filtered through a 10 kDa ultrafilter. The remaining WFI to yield a solution of 320 mg I/ml of compound I was used to rinse the ultrafilter by dilution of the concentrated retentate. The filtered solution was dispensed and autoclaved for 20 minutes at 121° C. After autoclaving, the concentration of inorganic iodide was 10 μg/ml, which is approximately a fifth of the concentration resulting from a conventional production not using the process of the invention.

The nature of data set [3]: Solubility in water (comparison).
Data set [4] is described as follows: Saturation / dissolution temperature of contrast agent solution in water. The text has this: The injection solution of Compound I is highly supersaturated. The nucleation (precipitation) in the injection solution at storage conditions is strongly undesirable. The physical stability of the solution, i.e. prevention of the nucleation for a certain time at storage conditions, may be improved substantially by heat treatment of the solution well above its saturation temperature for a sufficiently long period of time. A solution in which the concentration of the solute (API) exceeds the equilibrium solute concentration at a given temperature is said to be supersaturated. […] Such solutions are denoted as supersaturated. Saturation temperature is the temperature where all solid API (amorphous and crystalline) apparently dissolves completely. As the solubility of Compound I decreases with decreasing temperature, the supersaturation increases.
For a compound or contrast agent with a defined crystalline state (single polymorph) at one side, and a solvent including dissolved admixtures on the other, the concentration of the agent in the solution in equilibrium with the crystalline state is called solubility. At this concentration the activity of the agent is equal in both phases. A system out of the equilibrium stage tends to change the solution concentration towards the equilibrium (solubility), e.g. dissolve crystals when under-saturated, or crystallize out compound when supersaturated. Normally, the solubility changes, usually increases, with temperature. For the purpose, we define the temperature at which the crystal solubility is equal to the concentration in the particular solution as “dissolution temperature”. When a solution contains crystals, the crystals dissolve at temperatures above the “dissolution temperature”, remaining a crystal free solution. When the amount of the crystals is small, the concentration increase by dissolution may be neglected.

The nature of data set [5]: Stability of Compound I at different pH: inorganic iodide and pH after autoclaving. The conditions noted are these: 320 mg I/ml, 121° C. 120 minutes or 134° C. 60 minutes. As for the experimental part:
Experiments were performed to investigate the level of inorganic iodide generated as a result of degeneration of Compound I as a result of a pH and heating regime. Reference is made to FIGS. 1 and 2. The heat load was controlled by using a BIER-vessel for the steam heat sterilisation. Formulated Compound I (drug product, DP, 320 mg I/ml) was added 25% HCl to obtain 4 series of 6 vials with a pH of 2.0, 3.1, 4.0 and 7.7, respectively.
DP (10 ml) was filled in 10 ml vials. 3 vials from each series were autoclaved at 121° C. for 120 minutes and the remaining 3 vials were autoclaved at 134° C. for 60 minutes. The samples, including 2 reference samples, were subjected to pH and iodide analyses.

As for `O=CN(CC(O)CN(C=O)c1c(I)c(C(=O)NCC(O)CO)c(I)c(C(=O)NCC(O)CO)c1I)c1c(I)c(C(=O)NCC(O)CO)c(I)c(C(=O)NCC(O)CO)c1I` (centres unmarked) [Compound I, 5-[formyl-[3-[formyl-[3,5-bis(2,3-dihydroxypropylcarbamoyl)-2,4,6-triiodophenyl]amino]-2-hydroxypropyl]amino]-N,N′-bis(2,3-dihydroxypropyl)-2,4,6-triiodobenzene-1,3-dicarboxamide], the “iodide levels after steam heat sterilisation” value in data set [1] is reported as 75-85 μg I/ml. Besides, the “inorganic iodide concentration relative to conventional production not using the process” value in data set [2] (after autoclaving) is on record as “approximately a fifth”. Further, the “concentration of inorganic iodide after autoclaving” value in data set [2] (heated 40 minutes at 122° C. at pH 3, then pH 7.3, autoclaved 20 minutes at 121° C.) stood at 10000 ng/mL. The “solubility in water compared with iodixanol” value in data set [3] was “lower solubility in water than iodixanol”. The dissolution temperature in data set [4] (at 330 mg I/ml) is 110-111 °C; in data set [4] (water for injection as solvent, concentration range 270-380 mg I/ml), roughly 110 °C. The “change in pH after autoclaving” value in data set [5] (start pH in the range 2-4) is listed as “no significant change in pH”; in data set [5] (start pH of 7.7), “corresponding drop in pH”. For the same compound, the results for the “iodide levels after autoclaving” value in data set [5] (start pH in the range 2-4) and in data set [5] (start pH of 7.7) were “only a minor increase in iodide levels” and “high iodide levels”, respectively.
`CC(=O)N(CC(O)CN(C(C)=O)c1c(I)c(C(=O)NCC(O)CO)c(I)c(C(=O)NCC(O)CO)c1I)c1c(I)c(C(=O)NCC(O)CO)c(I)c(C(=O)NCC(O)CO)c1I` (centres unmarked) [iodixanol, reference compound]: in data set [4] (solution of about 320 mg I/ml in water), the saturation temperature result was “approximately 92 °C”.

The values are drawn from patent US11185598B2, “Preparation of stabilised x-ray diagnostic composition” (GE HEALTHCARE AS, priority 2010, dated 2021).
